Source: US9422240B2, “Partially saturated nitrogen-containing heterocyclic compound” (TAISHO PHARMACEUTICAL CO., LTD, priority 2012, dated 2016)

Key:
[1] = target: T1, human PHD2 (Homo sapiens (Human), UniProt Q9GZT9); assay: Test 2: human PHD2 inhibitory activity, fluorescence polarization assay of HIF-1α peptide proline hydroxylation; type: biochemical; conditions: for inhibition at 1 µM: test compound's concentration 1 μM, Test 2, fluorescence polarization assay, read-out: Percent inhibition (% at 1 μM); for IC50: human PHD2, fluorescence polarization assay, 20-min incubation at 30° C.
T1 sequence (Q9GZT9 whole entry): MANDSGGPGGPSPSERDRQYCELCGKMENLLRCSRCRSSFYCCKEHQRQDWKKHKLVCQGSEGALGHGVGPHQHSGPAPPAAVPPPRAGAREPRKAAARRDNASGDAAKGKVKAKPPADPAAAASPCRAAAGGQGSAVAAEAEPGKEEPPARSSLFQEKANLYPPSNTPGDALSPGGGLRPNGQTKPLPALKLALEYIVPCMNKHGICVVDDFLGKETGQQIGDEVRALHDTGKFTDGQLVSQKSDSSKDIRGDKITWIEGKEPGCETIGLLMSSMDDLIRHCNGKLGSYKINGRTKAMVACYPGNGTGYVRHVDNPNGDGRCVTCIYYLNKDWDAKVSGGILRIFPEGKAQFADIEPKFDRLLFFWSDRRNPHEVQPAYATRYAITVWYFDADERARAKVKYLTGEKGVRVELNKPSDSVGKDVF
Summary of the method: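 A 19-mer HIF-1α peptide served as substrate, with the reaction started by 40 ng/well human PHD2 (cell lysate of NM_022051-transfected cells) and run 20 min at 30° C. before EDTA stop. Hydroxylated product bound anti-HIF-OH antibody, read by fluorescence polarization versus no-compound control.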

[2] = target: T1, human PHD2; assay: Test 1: human PHD2 inhibitory activity, [14C]-2-oxoglutarate to [14C]-succinic acid radiometric assay with HIF-1α peptide; type: biochemical; conditions: test compound's concentration 1 μM; Test 1, [14C]-2-oxoglutarate radiometric assay; read-out: Percent inhibition (% at 1 μM)
Summary of the method: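 Activity was measured by radiometric counting of [14C]-succinic acid formed during prolyl hydroxylation of a 19-mer HIF-1α peptide, after DNPH removal of residual [14C]-2-oxoglutarate. Baculovirus-expressed human PHD2 lysate (4 μg/well) reacted for 15 min at 37° C. Substrate-free and compound-free wells served as reference points for inhibition.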

| SMILES | inhibition at 1 µM [1] [%] | inhibition at 1 µM [2] [%] | IC50 [1] [nM] |
| --- | --- | --- | --- |
| CC1(C)CC(O)=C(C(=O)NCC(=O)O)C(=O)N1Cc1ccc(OC(F)(F)F)c(Cl)c1 [Ex. 1-164] | 66 | 49 | – |
| O=C(O)CNC(=O)C1=C(O)CCN(Cc2ccc(Br)cc2F)C1=O [Ex. 1-145] | 83 | 88 | – |
| O=C(O)CNC(=O)C1=C(O)CCN(Cc2ccc(C3CCC3)c(C(F)(F)F)c2)C1=O [Ex. 1-243] | 92 | 76 | – |
| O=C(O)CNC(=O)C1=C(O)CCN(Cc2ccc(Oc3ccc(C(F)(F)F)cc3)nc2)C1=O [Ex. 1-254] | 96 | 103 | 24 |
| O=C(O)CNC(=O)C1=C(O)CCN(Cc2ccc(C3CCCCC3)cc2)C1=O [Ex. 1-37] | 89 | 87 | – |
| O=C(O)CNC(=O)C1=C(O)CC(Cc2ccccc2)N(Cc2ccc(C(F)(F)F)cc2)C1=O (centres unmarked) [Ex. 1-181] | 83 | 73 | – |
| O=C(O)CNC(=O)C1=C(O)CCN(Cc2cc(-c3ccccc3)no2)C1=O [Ex. 1-45] | 88 | 82 | – |
| O=C(O)CNC(=O)C1=C(O)CC2(CCCCC2)N(Cc2ccc(C(F)(F)F)cc2)C1=O [Ex. 1-63] | 69 | 43 | – |
| CC1CN(Cc2ccc(Cl)cc2)C(=O)C(C(=O)NCC(=O)O)=C1O (centres unmarked) [Ex. 1-162] | 77 | 78 | – |
| Cc1ccc(-c2ccc(CN3CCC(O)=C(C(=O)NCC(=O)O)C3=O)cc2)cc1 [Ex. 2-1, N-({4-Hydroxy-1-[(4′-methylbiphenyl-4-yl)methyl]-2-oxo-1,2,5,6-tetrahydropyridin-3-yl}carbonyl)glycine] | 88 | 93 | – |
| Cn1nccc1-c1ccc(CN2CCC(O)=C(C(=O)NCC(=O)O)C2=O)cc1 [Ex. 2-17] | 87 | 94 | – |
| O=C(O)CNC(=O)C1=C(O)CCN(CCCCCc2ccccc2)C1=O [Ex. 1-30] | 83 | 77 | – |
| O=C(O)CNC(=O)C1=C(O)CC2(CCC2)N(Cc2ccc(Cl)cc2)C1=O [Ex. 1-166] | 86 | 82 | – |
| CC1(C)CN(Cc2ccc(OC(F)(F)F)c(Cl)c2)C(=O)C(C(=O)NCC(=O)O)=C1O [Ex. 1-304] | 72 | 35 | – |
| O=C(O)CNC(=O)C1=C(O)CCN(Cc2ccc(-c3cnoc3)cc2)C1=O [Ex. 2-8] | 88 | 87 | – |
| O=C(O)CNC(=O)C1=C(O)C2(CC2)CN(Cc2ccc(C3CC3)cc2)C1=O [Ex. 1-214] | 90 | 89 | – |
| O=C(O)CNC(=O)C1=C(O)CCN(Cc2ccc(Oc3ccc(F)cc3)nc2)C1=O [Ex. 1-252] | 98 | 104 | 87 |
| Cn1nc(-c2ccccc2)cc1CN1C(=O)C(C(=O)NCC(=O)O)=C(O)CC1(C)C [Ex. 1-299] | 64 | 47 | – |
| CC1CC(O)=C(C(=O)NCC(=O)O)C(=O)N1Cc1ccc(Cl)cc1 (centres unmarked) [Ex. 1-171] | 82 | 81 | – |
| O=C(O)CNC(=O)C1=C(O)CC2(COC2)N(Cc2cnc(-c3ccccc3)s2)C1=O [Ex. 1-123] | 93 | 90 | – |
| CC1(C)CC(O)=C(C(=O)NCC(=O)O)C(=O)N1Cc1ccc(Cl)cc1 [Ex. 1-157] | 73 | 67 | – |
| CC1(C)C(O)=C(C(=O)NCC(=O)O)C(=O)N(Cc2ccc(C(F)(F)F)cc2)C1(C)C [Ex. 1-175] | 56 | 32 | – |
| O=C(O)CNC(=O)C1=C(O)C2(CCCCC2)CN(Cc2cnc(-c3ccccc3)s2)C1=O [Ex. 1-91] | 94 | 85 | – |
| O=C(O)CNC(=O)C1=C(O)CC2(CCC2)N(Cc2ccc(-c3ccc(F)cc3)cc2)C1=O [Ex. 1-178] | 92 | 81 | – |
| O=C(O)CNC(=O)C1=C(O)CCN(Cc2ccc(Oc3ccccc3)nc2)C1=O [Ex. 1-72] | 89 | 98 | 94 |
| C=CCOc1ccc(CN2CCC(O)=C(C(=O)NCC(=O)O)C2=O)cc1 [Ex. 4-2, N-({4-Hydroxy-2-oxo-1-[4-(prop-2-en-1-yloxy)benzyl]-1,2,5,6-tetrahydropyridin-3-yl}carbonyl)glycine] | 81 | 77 | – |
| O=C(O)CNC(=O)C1=C(O)CC2(CCOCC2)N(Cc2ccc(C(F)(F)F)cc2)C1=O [Ex. 1-106] | 72 | 66 | – |
| CC1(C)CC(O)=C(C(=O)NCC(=O)O)C(=O)N1Cc1cnc(-c2ccccc2)[nH]1 [Ex. 1-293] | 33 | 35 | – |
